Laboratory results from patent publication US9023789B2, “Amylin analogs and pharmaceutical compositions thereof” (Novo Nordisk A/S, priority 2012, dated 2015).
pEC50: −log10 of the molar value. Numbered stars: 1 amine (or outer) side, 2 acyl side, 3 side chain; on linkers, the order of the positions; unused ones are H or OH. Bridge positions count the residues as written; N and C are the ends. Side chains are listed from the residue outwards. Peptide text beside a SMILES is read from it. * marks the point of attachment. C20 diacid = O=C(O)CCCCCCCCCCCCCCCCCCC(=O)*; γGlu = O=C(O)[C@H](CCC(=O)[*:2])N[*:1]; AEEA = NCCOCCOCC(=O)O

Tests used:
[1] = biological target: T1, human amylin 3(a) receptor (human calcitonin receptor + RAMP-3) in BHK570 cells (Homo sapiens, UniProt O60896+P30988); experiment: ASSAY (II)a functional assay, human amylin receptor (CRE luciferase); type: cell-based; details: for pEC50: human amylin receptor functional potency, assay (II), read-out: hAmylin-R funct. EC50
T1 construct: expressed in transfected cells
T1 sequence (O60896 24-148): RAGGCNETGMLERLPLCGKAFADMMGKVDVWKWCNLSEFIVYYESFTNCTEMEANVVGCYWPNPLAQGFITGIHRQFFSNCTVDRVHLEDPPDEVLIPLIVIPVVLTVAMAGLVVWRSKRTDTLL
T1 sequence (P30988 25-474): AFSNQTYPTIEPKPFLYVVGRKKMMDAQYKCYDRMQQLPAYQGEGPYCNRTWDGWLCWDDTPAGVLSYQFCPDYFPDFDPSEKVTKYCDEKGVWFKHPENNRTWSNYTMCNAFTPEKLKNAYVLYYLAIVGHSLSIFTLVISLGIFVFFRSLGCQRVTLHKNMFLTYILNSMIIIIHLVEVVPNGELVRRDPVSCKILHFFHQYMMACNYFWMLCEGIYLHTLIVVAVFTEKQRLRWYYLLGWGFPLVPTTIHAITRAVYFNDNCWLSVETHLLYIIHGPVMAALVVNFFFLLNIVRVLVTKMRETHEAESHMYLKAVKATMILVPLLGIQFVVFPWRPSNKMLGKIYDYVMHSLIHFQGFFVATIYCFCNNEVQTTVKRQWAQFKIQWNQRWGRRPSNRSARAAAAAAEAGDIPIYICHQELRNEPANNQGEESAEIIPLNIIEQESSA
Procedure, shortened: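 Receptor activation is measured as cAMP-driven CRE-luciferase expression in BHK cells expressing the calcitonin receptor, with RAMP-3 co-expressed to form the amylin 3(a) receptor. Cells are exposed to compound for 3 hours at 37° C, and luciferase is then quantified by luminescence.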

[2] = ASSAY (III) ThT fibrillation assay for physical stability; type: physicochemical
Procedure, shortened: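 Physical stability scored by ThT fluorescence (444 nm excitation, 485 nm emission) tracked every 20 min during 37 °C incubation with 960 rpm shaking, ThT at 1 μM final. Values are replicate means with SD at chosen times; HPLC against pramlintide standard gives initial and post-assay soluble concentrations.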

[3] = hCTR funct. EC50 / hAmylin-R funct. EC50
[4] = hCTR funct. EC50 divided by hAmylin-R funct. EC50
[5] = hCTR funct. EC50 over hAmylin-R funct. EC50
[6] = human functional selectivity: hCTR funct. EC50 / hAmylin-R funct. EC50

Ratio hCT/hAmylin funct. [1, 4]	Ratio hCT/hAmylin funct. [1, 5]	pEC50 [1]	Ratio hCT/hAmylin funct. [1, 6]	ThT pH 4.0 lag time (h) [2] [h]	Compound	Ratio hCT/hAmylin funct. [1, 3]
1.1	1.1	10.09	1.1	45	CC[C@H](C)[C@H](NC(=O)[C@H](C)NC(=O)CNC(=O)[C@H](Cc1ccccc1)NC(=O)[C@H](CC(N)=O)NC(=O)[C@@H]1CCCN1C(=O)[C@H](CO)NC(=O)[C@H](CO)NC(=O)[C@H](Cc1c[nH]cn1)NC(=O)[C@H](CCCNC(=N)N)NC(=O)[C@H](CC(C)C)NC(=O)[C@H](Cc1ccccc1)NC(=O)[C@H](CCC(=O)O)NC(=O)[C@H](C)NC(=O)[C@H](CC(C)C)NC(=O)[C@H](CCCNC(=N)N)NC(=O)[C@H](CCC(N)=O)NC(=O)[C@@H](NC(=O)[C@H](C)NC(=O)[C@@H]1CSSC[C@H](NC(=O)[C@H](CCCCN)NC(=O)CC[C@H](NC(=O)CCCCCCCCCCCCCCCCCCC(=O)O)C(=O)O)C(=O)N[C@@H](CC(N)=O)C(=O)N[C@@H]([C@@H](C)O)C(=O)N[C@@H](C)C(=O)N[C@@H]([C@@H](C)O)C(=O)N1)[C@@H](C)O)C(=O)N1CCC[C@H]1C(=O)N[C@@H](CO)C(=O)N[C@@H](CO)C(=O)N[C@H](C(=O)N[C@@H](CC(N)=O)C(=O)N[C@H](C(=O)NCC(=O)N[C@@H](CO)C(=O)N[C@@H](CC(N)=O)C(=O)N[C@H](C(=O)N1CCC[C@H]1C(N)=O)[C@@H](C)O)C(C)C)[C@@H](C)O [Example 8] ({C20 diacid-γGlu}-KCNTATCATQRLAEFLRHSSPNFGAIPSSTNVGSNTP-NH2; disulfide 2-7)	1.1
38.8	38.8	–	38.8	30	CC[C@H](C)[C@H](NC(=O)[C@H](C)NC(=O)CNC(=O)[C@H](Cc1ccccc1)NC(=O)[C@H](CC(N)=O)NC(=O)[C@@H]1CCCN1C(=O)[C@H](CO)NC(=O)[C@H](CO)NC(=O)[C@H](Cc1c[nH]cn1)NC(=O)[C@H](CCCNC(=N)N)NC(=O)[C@H](CC(C)C)NC(=O)[C@H](Cc1ccccc1)NC(=O)[C@H](CC(N)=O)NC(=O)[C@H](C)NC(=O)[C@H](CC(C)C)NC(=O)[C@H](CCCNC(=N)N)NC(=O)[C@H](CCC(N)=O)NC(=O)[C@@H](NC(=O)[C@H](C)NC(=O)[C@@H]1CSSC[C@H](NC(=O)[C@@H](N)CCCCNC(=O)CC[C@H](NC(=O)CCCCCCCCCCCCC(=O)O)C(=O)O)C(=O)N[C@@H](CC(N)=O)C(=O)N[C@@H]([C@@H](C)O)C(=O)N[C@@H](C)C(=O)N[C@@H]([C@@H](C)O)C(=O)N1)[C@@H](C)O)C(=O)N1CCC[C@H]1C(=O)N[C@@H](CO)C(=O)N[C@@H](CO)C(=O)N[C@H](C(=O)N[C@@H](CC(N)=O)C(=O)N[C@H](C(=O)NCC(=O)N[C@@H](Cc1c[nH]cn1)C(=O)N[C@@H](CC(N)=O)C(=O)N[C@H](C(=O)N[C@@H](Cc1ccc(O)cc1)C(N)=O)[C@@H](C)O)C(C)C)[C@@H](C)O [Example 112]	–
–	2.2	9.61	2.2	9	CC[C@H](C)[C@H](NC(=O)[C@H](C)NC(=O)CNC(=O)[C@H](Cc1ccccc1)NC(=O)[C@H](CC(N)=O)NC(=O)[C@@H]1CCCN1C(=O)[C@H](CO)NC(=O)[C@H](CO)NC(=O)[C@H](Cc1c[nH]cn1)NC(=O)[C@H](CCCNC(=N)N)NC(=O)[C@H](CC(C)C)NC(=O)[C@H](Cc1ccccc1)NC(=O)[C@H](CCC(=O)O)NC(=O)[C@H](C)NC(=O)[C@H](CC(C)C)NC(=O)[C@H](CCCNC(=N)N)NC(=O)[C@H](CCC(N)=O)NC(=O)[C@@H](NC(=O)[C@H](C)NC(=O)[C@@H]1CSSC[C@H](NC(=O)[C@H](CCCCN)NC(=O)CC[C@H](NC(=O)CCCCCCCCCCCCCCCCCCC(=O)O)C(=O)O)C(=O)N[C@@H](CC(N)=O)C(=O)N[C@@H]([C@@H](C)O)C(=O)N[C@@H](C)C(=O)N[C@@H]([C@@H](C)O)C(=O)N1)[C@@H](C)O)C(=O)N[C@@H](CC(C)C)C(=O)N1CCC[C@H]1C(=O)N[C@@H](CO)C(=O)N[C@H](C(=O)N[C@@H](CC(N)=O)C(=O)N[C@H](C(=O)NCC(=O)N[C@@H](CO)C(=O)N[C@@H](CCC(=O)O)C(=O)N[C@H](C(=O)N[C@@H](Cc1ccc(O)cc1)C(N)=O)[C@@H](C)O)C(C)C)[C@@H](C)O [Example 33] ({C20 diacid-γGlu}-KCNTATCATQRLAEFLRHSSPNFGAILPSTNVGSETY-NH2; disulfide 2-7)	2.2
29.9	29.9	9.67	29.9	12	CC[C@H](C)[C@H](NC(=O)[C@H](C)NC(=O)CNC(=O)[C@H](Cc1ccccc1)NC(=O)[C@H](CC(N)=O)NC(=O)[C@@H]1CCCN1C(=O)[C@H](CO)NC(=O)[C@H](CO)NC(=O)[C@H](Cc1c[nH]cn1)NC(=O)[C@H](CCCNC(=N)N)NC(=O)[C@H](CC(C)C)NC(=O)[C@H](Cc1ccccc1)NC(=O)[C@H](CC(N)=O)NC(=O)[C@H](C)NC(=O)[C@H](CC(C)C)NC(=O)[C@H](CCCNC(=N)N)NC(=O)[C@H](CCC(N)=O)NC(=O)[C@@H](NC(=O)[C@H](C)NC(=O)[C@@H]1CSSC[C@H](NC(=O)[C@@H](N)CCCCNC(=O)COCCOCCNC(=O)CC[C@H](NC(=O)CCCCCCCCCCCCCCCCCCC(=O)O)C(=O)O)C(=O)N[C@@H](CC(N)=O)C(=O)N[C@@H]([C@@H](C)O)C(=O)N[C@@H](C)C(=O)N[C@@H]([C@@H](C)O)C(=O)N1)[C@@H](C)O)C(=O)N1CCC[C@H]1C(=O)N[C@@H](CO)C(=O)N[C@@H](CO)C(=O)N[C@H](C(=O)N[C@@H](CC(N)=O)C(=O)N[C@H](C(=O)NCC(=O)N[C@@H](CO)C(=O)N[C@@H](CCC(=O)O)C(=O)N[C@H](C(=O)N[C@@H](Cc1ccc(O)cc1)C(N)=O)[C@@H](C)O)C(C)C)[C@@H](C)O [Example 26] (H-K([AEEA-γGlu-C20 diacid])CNTATCATQRLANFLRHSSPNFGAIPSSTNVGSETY-NH2; disulfide 2-7; N-terminus assumed)	–

Compound	Ratio hCT/hAmylin funct. [1, 4]	Ratio hCT/hAmylin funct. [1, 5]	pEC50 [1]	Ratio hCT/hAmylin funct. [1, 6]	ThT pH 4.0 lag time (h) [2] [h]	Ratio hCT/hAmylin funct. [1, 3]
CC[C@H](C)[C@H](NC(=O)[C@H](C)NC(=O)CNC(=O)[C@H](Cc1ccccc1)NC(=O)[C@H](CC(N)=O)NC(=O)[C@@H]1CCCN1C(=O)[C@H](CO)NC(=O)[C@H](CO)NC(=O)[C@H](Cc1c[nH]cn1)NC(=O)[C@H](CCCNC(=N)N)NC(=O)[C@H](CC(C)C)NC(=O)[C@H](Cc1ccccc1)NC(=O)[C@H](Cc1c[nH]cn1)NC(=O)[C@H](C)NC(=O)[C@H](CC(C)C)NC(=O)[C@H](CCCNC(=N)N)NC(=O)[C@H](CCC(N)=O)NC(=O)[C@@H](NC(=O)[C@H](C)NC(=O)[C@@H]1CSSC[C@H](NC(=O)[C@@H](N)CCCCNC(=O)CC[C@H](NC(=O)CCCCCCCCCCCCCCCCCCC(=O)O)C(=O)O)C(=O)N[C@@H](CC(N)=O)C(=O)N[C@@H]([C@@H](C)O)C(=O)N[C@@H](C)C(=O)N[C@@H]([C@@H](C)O)C(=O)N1)[C@@H](C)O)C(=O)N1CCC[C@H]1C(=O)N[C@@H](CO)C(=O)N[C@@H](CO)C(=O)N[C@H](C(=O)N[C@@H](CC(N)=O)C(=O)N[C@H](C(=O)NCC(=O)N1CCC[C@H]1C(=O)N[C@@H](CC(N)=O)C(=O)N[C@H](C(=O)N1CCC[C@H]1C(N)=O)[C@@H](C)O)C(C)C)[C@@H](C)O [Example 115] (H-K([γGlu-C20 diacid])CNTATCATQRLAHFLRHSSPNFGAIPSSTNVGPNTP-NH2; disulfide 2-7 (inferred); N-terminus assumed)	0.8	0.8	10.28	0.8	45	0.8
CC[C@H](C)[C@H](NC(=O)[C@H](C)NC(=O)CNC(=O)[C@H](Cc1ccccc1)NC(=O)[C@H](CC(N)=O)NC(=O)[C@@H]1CCCN1C(=O)[C@H](CO)NC(=O)[C@H](CO)NC(=O)[C@H](Cc1c[nH]cn1)NC(=O)[C@H](CCCNC(=N)N)NC(=O)[C@H](CC(C)C)NC(=O)[C@H](Cc1ccccc1)NC(=O)[C@H](CCC(=O)O)NC(=O)[C@H](C)NC(=O)[C@H](CC(C)C)NC(=O)[C@H](CCCNC(=N)N)NC(=O)[C@H](CCC(N)=O)NC(=O)[C@@H](NC(=O)[C@H](C)NC(=O)[C@@H]1CSSC[C@H](NC(=O)[C@H](CCCCN)NC(=O)COCCOCCNC(=O)COCCOCCNC(=O)CC[C@H](NC(=O)CCCCCCCCCCCCCCCCCCC(=O)O)C(=O)O)C(=O)N[C@@H](CC(N)=O)C(=O)N[C@@H]([C@@H](C)O)C(=O)N[C@@H](C)C(=O)N[C@@H]([C@@H](C)O)C(=O)N1)[C@@H](C)O)C(=O)N1CCC[C@H]1C(=O)N[C@@H](CO)C(=O)N[C@@H](CO)C(=O)N[C@H](C(=O)N[C@@H](CC(N)=O)C(=O)N[C@H](C(=O)NCC(=O)N[C@@H](CO)C(=O)N[C@@H](CC(N)=O)C(=O)N[C@H](C(=O)N1CCC[C@H]1C(N)=O)[C@@H](C)O)C(C)C)[C@@H](C)O [Example 20] ({C20 diacid-γGlu-AEEA-AEEA}-KCNTATCATQRLAEFLRHSSPNFGAIPSSTNVGSNTP-NH2; disulfide 2-7)	3.6	3.6	10.10	3.6	45	3.6
